In ChEMBL document CHEMBL1148590, “Design and synthesis of 3,4-dihydro-1H-[1]-benzothieno[2,3-c]pyran and 3,4-dihydro-1H-pyrano[3,4-b]benzofuran derivatives as non-nucleoside inhibitors of HCV NS5B RNA dependent RNA polymerase” (Bioorg Med Chem Lett, 2006):
Active and inactive are the calls of the source. The calls are words filed in the database; no cut-off is given here.

What was measured:
Huh-7 = test: Cytotoxicity against Huh7 cells by MTS metabolic assay; assay type: functional, cell-based; settings: Homo sapiens
NS3 = NS3 (Hepatitis C virus, UniProt A3EZJ3); test: Inhibition of HCV NS3 helicase; set-up: species or system Hepacivirus hominis
[1] = biological target: Human immunodeficiency virus type 1 reverse transcriptase (Human immunodeficiency virus 1, UniProt Q72547); test: Inhibition of HIV reverse transcriptase
Vero = test: Cytotoxicity against vero cells by MTS metabolic assay; assay type: functional, cell-based; settings: Chlorocebus sabaeus
[2] = biological target: T1, DNA polymerase subunit gamma-1 (Homo sapiens) (UniProt P54098); test: Inhibitory activity against human mitochondrial DNA polymerase gamma upto 50 uM
T1 sequence (whole entry): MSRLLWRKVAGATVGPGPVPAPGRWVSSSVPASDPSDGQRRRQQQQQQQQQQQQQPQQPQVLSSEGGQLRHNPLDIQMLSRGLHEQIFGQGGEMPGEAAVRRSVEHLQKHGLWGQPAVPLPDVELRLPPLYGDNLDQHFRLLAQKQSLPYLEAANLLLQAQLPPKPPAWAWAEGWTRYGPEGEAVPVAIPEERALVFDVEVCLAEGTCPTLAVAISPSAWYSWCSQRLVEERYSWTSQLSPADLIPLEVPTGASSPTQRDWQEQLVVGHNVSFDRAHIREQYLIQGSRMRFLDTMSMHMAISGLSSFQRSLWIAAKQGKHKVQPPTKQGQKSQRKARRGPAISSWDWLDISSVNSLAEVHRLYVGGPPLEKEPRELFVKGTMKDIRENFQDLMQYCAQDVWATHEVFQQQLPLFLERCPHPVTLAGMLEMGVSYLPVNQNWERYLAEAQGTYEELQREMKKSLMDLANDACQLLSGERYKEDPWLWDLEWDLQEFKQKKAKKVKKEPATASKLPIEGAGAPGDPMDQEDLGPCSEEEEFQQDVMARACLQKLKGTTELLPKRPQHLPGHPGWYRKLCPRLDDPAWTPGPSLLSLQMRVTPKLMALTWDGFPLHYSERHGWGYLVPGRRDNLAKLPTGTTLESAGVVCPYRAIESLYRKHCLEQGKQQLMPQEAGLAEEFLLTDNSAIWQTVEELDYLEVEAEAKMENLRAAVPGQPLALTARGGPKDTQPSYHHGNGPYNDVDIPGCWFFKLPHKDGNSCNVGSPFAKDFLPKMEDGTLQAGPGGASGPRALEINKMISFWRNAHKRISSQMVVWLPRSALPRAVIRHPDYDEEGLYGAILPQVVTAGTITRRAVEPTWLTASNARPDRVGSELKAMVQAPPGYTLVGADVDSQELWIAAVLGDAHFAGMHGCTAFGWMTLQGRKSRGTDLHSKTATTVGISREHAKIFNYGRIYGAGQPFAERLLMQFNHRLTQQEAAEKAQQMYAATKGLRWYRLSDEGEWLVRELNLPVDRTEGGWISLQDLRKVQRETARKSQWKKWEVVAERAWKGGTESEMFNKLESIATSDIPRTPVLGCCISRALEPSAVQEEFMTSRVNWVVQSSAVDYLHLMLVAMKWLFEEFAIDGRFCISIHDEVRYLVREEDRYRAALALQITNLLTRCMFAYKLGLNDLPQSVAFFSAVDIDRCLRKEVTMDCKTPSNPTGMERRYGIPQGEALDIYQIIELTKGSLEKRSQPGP

[3] = biological target: RNA-directed RNA polymerase (Hepacivirus hominis, UniProt O39930); test: Displacement of [alpha-32P]GTP from recombinant HCV NS5B RNA dependent RNA polymerase
Chain of RNA-directed RNA polymerase (O39930 whole entry): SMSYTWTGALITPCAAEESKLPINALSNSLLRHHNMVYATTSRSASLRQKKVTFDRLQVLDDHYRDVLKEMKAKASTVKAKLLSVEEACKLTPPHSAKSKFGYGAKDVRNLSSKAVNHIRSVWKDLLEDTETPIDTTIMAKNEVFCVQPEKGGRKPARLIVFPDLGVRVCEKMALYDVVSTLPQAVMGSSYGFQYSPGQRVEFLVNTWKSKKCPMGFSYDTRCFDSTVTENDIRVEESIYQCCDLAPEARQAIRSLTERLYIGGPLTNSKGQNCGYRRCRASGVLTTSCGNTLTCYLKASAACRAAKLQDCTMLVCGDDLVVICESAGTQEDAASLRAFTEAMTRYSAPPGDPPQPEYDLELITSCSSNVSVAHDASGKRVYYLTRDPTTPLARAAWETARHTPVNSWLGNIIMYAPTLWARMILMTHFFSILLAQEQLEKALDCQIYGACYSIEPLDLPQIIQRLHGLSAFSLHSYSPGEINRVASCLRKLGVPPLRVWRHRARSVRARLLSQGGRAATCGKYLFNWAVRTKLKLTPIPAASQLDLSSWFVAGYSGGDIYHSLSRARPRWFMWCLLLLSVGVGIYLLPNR

Chain of NS3 (A3EZJ3 whole entry): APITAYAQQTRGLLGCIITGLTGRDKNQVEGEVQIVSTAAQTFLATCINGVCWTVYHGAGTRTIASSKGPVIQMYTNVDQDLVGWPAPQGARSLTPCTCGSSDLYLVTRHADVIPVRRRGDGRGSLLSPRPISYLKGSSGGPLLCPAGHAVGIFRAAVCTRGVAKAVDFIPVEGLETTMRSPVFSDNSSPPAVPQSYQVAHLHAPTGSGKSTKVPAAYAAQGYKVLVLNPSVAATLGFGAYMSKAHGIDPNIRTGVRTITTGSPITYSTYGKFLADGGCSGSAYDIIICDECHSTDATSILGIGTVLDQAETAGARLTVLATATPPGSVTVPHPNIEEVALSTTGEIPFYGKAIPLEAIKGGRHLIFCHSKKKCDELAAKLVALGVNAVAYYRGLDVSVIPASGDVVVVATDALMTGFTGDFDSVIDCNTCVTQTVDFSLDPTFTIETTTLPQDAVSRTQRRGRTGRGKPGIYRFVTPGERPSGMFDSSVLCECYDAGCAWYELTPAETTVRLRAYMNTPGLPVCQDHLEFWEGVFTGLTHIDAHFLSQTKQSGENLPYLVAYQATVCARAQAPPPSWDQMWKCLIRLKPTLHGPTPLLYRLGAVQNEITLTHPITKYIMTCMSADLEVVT

Row | IC50 [3] [nM] | SMILES | also measured
1 | 50 | CCC[C@]1(CC(=O)O)OCCc2c1sc1c(C)cc(F)c(C#N)c21 | IC50 (Huh-7): > 75000 nM; IC50 (NS3): > 75000 nM; IC50 [1]: > 100000 nM; IC50 (Vero): > 75000 nM; Activity [2]: inactive
2 | 5360 | CCC[C@@]1(CC(=O)O)OCCc2c1sc1c(C)cc(F)c(C#N)c21 | 
3 | 130 | CCCC1(CC(=O)O)OCCc2c1sc1c(C)cc(F)c(C#N)c21 (stereo not drawn) | 
4 | 170 | CCC[C@]1(CC(=O)O)OCCc2c1sc1c(C)ccc(C#N)c21 | 
5 | 140 | CCCC1(CC(=O)O)OCCc2c1sc1c(Cl)ccc(Cl)c21 (stereo not drawn) | 
6 | 1490 | CCCC1(CC(=O)O)OCCc2c1oc1c(Cl)ccc(Cl)c21 (stereo not drawn) | 
7 | 320 | CCCC1(CC(=O)O)OCCc2c1sc1c(C)ccc(C#N)c21 (stereo not drawn) | 
8 | 190 | CCCC1(CC(=O)O)OCCc2c1sc1c(C)ccc(Br)c21 (stereo not drawn) | 
9 | 2850 | CCC[C@@]1(CC(=O)O)OCCc2c1sc1c(C)ccc(C#N)c21 | 
10 | 16300 | CCC1(CC(=O)O)OCCc2c1oc1c(Cl)ccc(Cl)c21 (stereo not drawn) | 
11 | 1900 | CCC1(CC(=O)O)OCCc2c1sc1c(Cl)ccc(Cl)c21 (stereo not drawn) | 
12 | 4460 | CCCCC1(CC(=O)O)OCCc2c1oc1c(Cl)ccc(Cl)c21 (stereo not drawn) | 
13 | 750 | CCCCC1(CC(=O)O)OCCc2c1sc1c(Cl)ccc(Cl)c21 (stereo not drawn) | 
14 | 17600 | CC1(CC(=O)O)OCCc2c1sc1c(Cl)ccc(Cl)c21 (stereo not drawn) | 

Row | SMILES | IC50 [3] [nM] | also measured
15 | CCCC1(CC(=O)O)OCCc2c1oc1ccccc21 (stereo not drawn) | > 20000 | 
16 | CC1(CC(=O)O)OCCc2c1oc1c(Cl)ccc(Cl)c21 (stereo not drawn) | > 20000 | 
17 | CCCC1(CC(=O)O)OCCc2c1sc1ccccc21 (stereo not drawn) | > 20000 | 
18 | CCCC1(CC(=O)O)OCCc2c1sc1c(C)cc(F)cc21 (stereo not drawn) | > 20000 | 
